Tested on: TLR4
Assay: TLR4 silencing by vivo-morpholino, western blot of tumors
Assay type: in vivo, BALB/c mice
Details: tumor-bearing mice, with 25 mg/kg ART, vs SC-MO, p<0.001
Method: Normal and tumor tissues were homogenized in ice-cold radioimmunoprecipitation assay (RIPA) buffer containing a protease inhibitor cocktail. Proteins were resolved by 10% sodium dodecyl sulphate-polyacrylamide gel electrophoresis (SDS-PAGE), transferred onto polyvinylidene difluoride (PVDF) membranes, blocked with 5% fat-free milk and incubated with primary antibodies (1:1000 dilution) overnight at 4°C. Blots were subsequently washed and incubated with respective secondary antibodies, tagged with horseradish peroxidase. Protein expression was detected using enhanced chemiluminescence (ECL) kit ([37]). Blots were analyzed using the Gel Doc XR and band intensity quantified using ImageJ software (NIH, USA).
Murine mammary tumors were allowed to develop in BALB/c mice injected with 10^7 4T1 cells. […] Control groups were set up, where normal mice and mice-bearing tumors received PBS for 7 days. At the end of the experiment, tissues were harvested and processed for subsequent experiments.

TLR4-VMO: vivo morpholino oligomers against TLR4 mRNA; 5' CAGGGAGGCATCATCCTGGCATTTT 3' (all phosphorodiamidate morpholino (PMO); vivo-morpholino from GeneTools, further chemistry not fully specified)
TLR4 expression: significantly diminished

Source: paper PMC10748408 (Frontiers in Oncology, 2023)
